In PMC6061170, “Synthesis and biological investigations of 3β-aminotropane arylamide derivatives with atypical antipsychotic profile” (Medicinal Chemistry Research, 2018):
Where “and” joins values, the source holds several entries; their conditions need not be identical. Equal values may be shown once. Where a name gives a salt, the structure may show the parent alone. Read-outs that look alike come from different tables or passages of the source.

Tests used:
[1] = biological target: T1, serotonin 5-HT1A receptors (Rattus norvegicus, UniProt P19327); experiment: Radioligand binding assay, 5-HT1A receptors
T1 construct: from tissue; host or cells: rat brain tissues
T1 sequence (P19327 1-422): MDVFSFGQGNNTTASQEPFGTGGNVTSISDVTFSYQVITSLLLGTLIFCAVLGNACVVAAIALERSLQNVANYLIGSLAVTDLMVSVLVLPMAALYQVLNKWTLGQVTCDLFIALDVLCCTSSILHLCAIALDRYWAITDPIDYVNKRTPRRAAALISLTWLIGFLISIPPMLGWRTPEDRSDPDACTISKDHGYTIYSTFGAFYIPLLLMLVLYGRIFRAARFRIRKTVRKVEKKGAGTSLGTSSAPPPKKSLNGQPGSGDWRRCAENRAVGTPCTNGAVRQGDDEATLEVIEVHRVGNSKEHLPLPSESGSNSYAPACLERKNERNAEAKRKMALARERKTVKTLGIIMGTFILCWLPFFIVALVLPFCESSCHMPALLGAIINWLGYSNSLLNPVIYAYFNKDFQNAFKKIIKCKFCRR
Experimental: All compounds were tested for their affinities for 5-HT1A, 5-HT2A, and D2 receptors according to previously described procedures (Stefanowicz et al. [2016]).
Competition binding studies were performed according to a previously described procedure in rat brain tissues (Stefanowicz et al. [2016]).

[2] = biological target: T2, serotonin 5-HT2A receptors (Rattus norvegicus, UniProt P14842); experiment: Radioligand binding assay, 5-HT2A receptors; conditions: rat brain tissues; for IC50: read-out: 5-HT2A IC50 [nM] ± SEM; for Ki: read-out: 5-HT2A Ki [nM] ± SEM
T2 construct: from tissue; host or cells: rat brain tissues
T2 sequence (P14842 whole entry): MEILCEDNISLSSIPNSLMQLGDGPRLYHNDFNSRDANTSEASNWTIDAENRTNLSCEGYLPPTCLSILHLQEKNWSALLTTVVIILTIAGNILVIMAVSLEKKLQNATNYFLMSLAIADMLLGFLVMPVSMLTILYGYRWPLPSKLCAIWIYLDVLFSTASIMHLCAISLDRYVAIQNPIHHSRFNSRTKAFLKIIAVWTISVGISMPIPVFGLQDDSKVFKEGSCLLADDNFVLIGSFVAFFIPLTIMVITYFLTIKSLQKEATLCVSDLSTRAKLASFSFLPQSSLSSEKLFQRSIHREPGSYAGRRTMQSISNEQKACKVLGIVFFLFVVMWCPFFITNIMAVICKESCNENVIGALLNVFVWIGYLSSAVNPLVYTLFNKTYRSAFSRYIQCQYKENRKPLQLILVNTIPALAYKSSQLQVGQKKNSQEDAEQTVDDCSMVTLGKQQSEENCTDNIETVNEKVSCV

[3] = biological target: dopamine D2 receptors (Rattus norvegicus, UniProt P61169); experiment: Radioligand binding assay, D2 receptors
Chain of dopamine D2 receptors (P61169 1-415 isoform P61169-2): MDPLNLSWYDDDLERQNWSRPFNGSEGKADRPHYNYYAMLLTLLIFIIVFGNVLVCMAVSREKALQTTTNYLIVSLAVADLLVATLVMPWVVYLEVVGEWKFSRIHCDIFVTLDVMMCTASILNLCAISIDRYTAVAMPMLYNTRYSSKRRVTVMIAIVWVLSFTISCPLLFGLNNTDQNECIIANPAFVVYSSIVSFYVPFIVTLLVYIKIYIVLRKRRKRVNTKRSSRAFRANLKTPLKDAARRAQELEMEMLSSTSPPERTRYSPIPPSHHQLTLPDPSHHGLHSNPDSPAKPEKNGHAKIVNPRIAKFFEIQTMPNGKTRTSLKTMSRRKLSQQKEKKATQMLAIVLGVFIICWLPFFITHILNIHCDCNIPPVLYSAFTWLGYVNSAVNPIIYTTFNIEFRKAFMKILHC

[4] = system: Albino Swiss mice; experiment: Forced swim test; conditions: last 4 min of session
[5] = system: Albino Swiss mice; experiment: Four-plate test
[6] = system: CD-1 mice; experiment: Spontaneous locomotor activity; format: in vivo
[7] = system: CD-1 mice; experiment: MK-801-induced hyperlocomotor activity
[8] = system: CD-1 mice; experiment: d-Amphetamine-induced hyperlocomotor activity; conditions: for decrease of locomotor hyperactivity vs. respective d-amphetamine group: doses of 5 and 10 mg/kg i.p.
[9] = rat brain tissues, read-out: 5-HT1A IC50 [nM] ± SEM
[10] = rat brain tissues, read-out: D2 IC50 [nM] ± SEM
[11] = rat brain tissues, read-out: D2 Ki [nM] ± SEM
[12] = 1.25 mg/kg i.p. 30 min before test
[13] = 2.5 mg/kg i.p. 30 min before test
[14] = 5 mg/kg i.p. 30 min before test
[15] = 10 mg/kg i.p. 30 min before test
[16] = compound 5 mg/kg i.p. 30 min + MK-801 0.2 mg/kg
[17] = compound 5 mg/kg i.p. + d-amphetamine 2.5 mg/kg s.c.
[18] = compound 10 mg/kg i.p. + d-amphetamine 2.5 mg/kg s.c.
[19] = rat brain tissues, read-out: 5-HT1A Ki [nM] ± SEM

| SMILES | Ki [1] [nM] | IC50 [1, 9] [nM] | IC50 [2] [nM] | Ki [2] [nM] | melting point [°C] | IC50 [3, 10] [nM] | Ki [3, 11] [nM] | Immobility time (s) Mean ± SEM [4, 12] [s] | Immobility time (s) Mean ± SEM [4, 13] | Immobility time (s) Mean ± SEM [4, 14] | Number of punished crossings /1 min Mean ± SEM [5, 13] | Number of punished crossings /1 min Mean ± SEM [5, 14] | Number of punished crossings /1 min Mean ± SEM [5, 15] | other results |
| --- | --- | --- | --- | --- | --- | --- | --- | --- | --- | --- | --- | --- | --- | --- |
| COc1cc(C(=O)NC2CC3CCC(C2)N3Cc2ccccc2C)nc2ccccc12 (stereo not drawn) [Compound 12d] | 34 ± 1.7 | 102 ± 4.9 | > 10000 | > 10000 | 54.5 to 55.9 | > 10000 | > 10000 | 144.22 ± 14.5 | 113.44 ± 14.9 s | 150.8 ± 11.4 F(3,32) = 5.5680; NS s | 3.3 ± 0.3 crossings/1 min | 4.8 ± 0.3 crossings/1 min | 4.7 ± 0.8 F(3,36) = 3.1652; p < 0.05 crossings/1 min |  |
| Cc1cccc(CN2C3CCC2CC(NC(=O)c2ccc4ccccc4n2)C3)c1 (stereo not drawn) [Compound 12e] | 55.3 ± 8.3 | 166 ± 25 | > 10000 | > 10000 | 113.8 to 114.7 | 260 ± 16.7 |  |  | 172.14 ± 11.6 s |  | 3.5 ± 0.3 crossings/1 min | 2.9 ± 0.3 crossings/1 min | 3.8 ± 0.5 F(3,36) = 1.3827; NS crossings/1 min | Number of crossings/60 min Mean ± SEM [6, 15]: 1034 ± 255.9 p < 0.05 F(1,18) = 5.4398; p < 0.05 crossings/60 min; effect on spontaneous locomotor activity ([6]; doses used in hyperlocomotor activity tests): did not change the spontaneous locomotor activity; effect on MK-801-induced hyperlocomotor activity ([7]; 5 mg/kg, tendency to decrease): did not reach a statistically significant level; Number of crossings/60 min Mean ± SEM ([7]; compound 0.625 mg/kg i.p. 30 min + MK-801 0.2 mg/kg): 4375.1 ± 583.4; ns, ns crossings/60 min; Number of crossings/60 min Mean ± SEM ([7]; compound 1.25 mg/kg i.p. 30 min + MK-801 0.2 mg/kg): 4019.3 ± 341.3; ns, ns crossings/60 min; Number of crossings/60 min Mean ± SEM ([7]; compound 2.5 mg/kg i.p. 30 min + MK-801 0.2 mg/kg): 5440.1 ± 937.3 ns, ns crossings/60 min; Number of crossings/60 min Mean ± SEM [7, 16]: 3580.7 ± 384.9; ns, ns F(5,48) = 2.8885; p < 0.05 crossings/60 min; Ki [3]: 52.2 ± 3.4 nM; Immobility time (s) Mean ± SEM [4, 15]: 183.33 ± 12.3 F(3,30) = 1.2074; NS s; Number of crossings/60 min Mean ± SEM ([8]; compound 2.5 mg/kg i.p. + d-amphetamine 2.5 mg/kg s.c.): 2993.0 ± 301.0; p < 0.01 vs. amph.; ns vs. contr crossings/60 min; Number of crossings/60 min Mean ± SEM [8, 17]: 2651.0 ± 512.6; p < 0.01 vs. amph.; ns vs. contr crossings/60 min; Number of crossings/60 min Mean ± SEM [8, 18]: 909.9 ± 11.3; p < 0.0001 vs. amph.; ns vs. contr F(4,42) = 10.584; p < 0.0001 crossings/60 min; decrease of locomotor hyperactivity vs. respective d-amphetamine group [8]: 60–86% |
| COc1cc(C(=O)NC2CC3CCC(C2)N3Cc2cccc(C)c2)nc2ccccc12 (stereo not drawn) [Compound 12h] | 21 ± 2 |  | > 10000 | > 10000 | 116.1 to 118.3 | 2510 ± 271 | 503 ± 54.5 | 134.78 ± 12.9 | 185.00 ± 15.0 F(3,30) = 3.5680; p < 0.05 s |  | 5.5 ± 0.5; p < 0.001 crossings/1 min | 2.9 ± 0.3 F(3,36) = 17.202; p < 0.00001 crossings/1 min |  | IC50 [1]: 62.8 ± 6.2 nM; Immobility time (s) Mean ± SEM ([4]; 0.625 mg/kg i.p. 30 min before test): 163.29 ± 10.7 s; Number of punished crossings /1 min Mean ± SEM [5, 12]: 5.3 ± 0.3; p < 0.001 crossings/1 min; increase of punished crossings vs. respective control group ([5]; 1.25 and 2.5 mg/kg i.p.): ~60% |
| Cc1ccc(CN2C3CCC2CC(NC(=O)c2ccc4ccccc4n2)C3)cc1 (stereo not drawn) [Compound 12i, N-[8-(4-methylbenzyl)-8-azabicyclo[3.2.1]oct-3β-yl)]-quinoline-2-carboxamide oxalate] | 43.5 ± 1.3 | 131 ± 4.4 | > 10000 | > 10000 |  |  |  | 132.00 ± 2.93 | 149.89 ± 12.7 s | 219.67 ± 1.43; p < 0.05 F(3,26) = 7.5750; p < 0.001 s | 3.1 ± 0.3 crossings/1 min | 2.3 ± 0.4 crossings/1 min | 1.7 ± 0.4; p < 0.05 F(3,35) = 4.2954; p < 0.05 crossings/1 min | Number of crossings/60 min Mean ± SEM [6, 12]: 1573.6 ± 149.3 crossings/60 min; Number of crossings/60 min Mean ± SEM [6, 13]: 2676.0 ± 336.7; p < 0.01 crossings/60 min; Number of crossings/60 min Mean ± SEM [6, 14]: 1135.8 ± 184.3 F(3,34) = 8.8733; p < 0.001 crossings/60 min; decrease of spontaneous locomotor activity ([6]; 10 mg/kg): about 70%; effect on MK-801-induced hyperlocomotor activity ([7]; 5 mg/kg and 10 mg/kg i.p.): significantly reduced; Number of crossings/60 min Mean ± SEM [7, 16]: 2432.8 ± 526.6; ns vs. contr p < 0.01 vs. MK crossings/60 min; Number of crossings/60 min Mean ± SEM ([7]; compound 10 mg/kg i.p. 30 min + MK-801 0.2 mg/kg): 805.4 ± 147.2 ns vs. contr p < 0.0001 vs. MK F(3,30) = 14.206; p < 0.0001 crossings/60 min; IC50 [3]: 37 ± 2.1 nM; Ki [3]: 7.4 ± 0.4 nM; Number of crossings/60 min Mean ± SEM [8, 17]: 1771.3 ± 470.4; p < 0.01 vs. amph.; ns vs. contr crossings/60 min; Number of crossings/60 min Mean ± SEM [8, 18]: 2046.2 ± 63.1; p < 0.01 vs. amph.; ns vs. contr F(3,34) = 6.5110; p < 0.01 crossings/60 min; decrease of locomotor hyperactivity vs. respective d-amphetamine group [8]: 60–86% |
| Nc1cccc(CN2C3CCC2CC(NC(=O)c2ccc4ccccc4c2)C3)c1 (stereo not drawn) [Compound 19b] |  | 862 ± 49.5 | 766 ± 48.4 | 208 ± 13.2 | 165.4 to 166.6 | 1560 ± 19.9 | 312 ± 3.9 |  |  |  |  |  |  | Ki [1, 19]: 286 ± 16.4 nM |
| Nc1ccc(CN2C3CCC2CC(NC(=O)c2ccc4ccccc4c2)C3)cc1 (stereo not drawn) [Compound 19c] |  | 4040 ± 469 | 4580 ± 199 | 1240 ± 54 | 201.6 to 208.8 | 682 ± 42.7 | 136 ± 8.5 |  |  |  |  |  |  | Ki [1, 19]: 1340 ± 156 nM |
| CN1C(=O)CN=C(c2ccccc2)c2cc(Cl)ccc21 [Diazepam, reference compound] |  |  |  |  |  |  |  |  |  |  |  |  |  | Number of punished crossings /1 min Mean ± SEM ([5]; diazepam 1.25 mg/kg, 60 min before test): 5.8 ± 0.3; p < 0.01 crossings/1 min; Number of punished crossings /1 min Mean ± SEM ([5]; diazepam 2.5 mg/kg, 60 min before test): 6.4 ± 0.5; p < 0.01 crossings/1 min; Number of punished crossings /1 min Mean ± SEM ([5]; diazepam 5 mg/kg, 60 min before test): 6.6 ± 0.4; p < 0.05 F(3,36) = 6.455; p < 0.01 crossings/1 min |
| CN(C)CCCN1c2ccccc2CCc2ccccc21 [Imipramine, reference compound] |  |  |  |  |  |  |  |  |  | 170.42 ± 10.9 s |  |  |  | Immobility time (s) Mean ± SEM ([4]; 20 mg/kg i.p. 30 min before test): 77.81 ± 12.2; p < 0.001 F(3,36) = 16.7570; p < 0.0001 s |
| C[C@]12N[C@H](Cc3ccccc31)c1ccccc12 [MK-801, reference compound] |  |  |  |  |  |  |  |  |  |  |  |  |  | Number of crossings/60 min Mean ± SEM ([7]; MK-801 alone 0.2 mg/kg i.p. 15 min before test): 4708.1 ± 522.1; p < 0.01 vs. contr crossings/60 min and 6247.1 ± 1063.8; p < 0.01 vs. contr crossings/60 min and 8757.9 ± 1378; p < 0.00001 vs. contr crossings/60 min and 6329.9 ± 1012.5; p < 0.05 vs. contr crossings/60 min |
| C[C@H](N)Cc1ccccc1 [d-amphetamine, reference compound] |  |  |  |  |  |  |  |  |  |  |  |  |  | Number of crossings/60 min Mean ± SEM ([8]; d-amphetamine alone 2.5 mg/kg s.c. 30 min before test): 6819.9 ± 1534.7; p < 0.05 vs. contr crossings/60 min and 6553.1 ± 1214.5; p < 0.001 vs. contr crossings/60 min |
